Assay results reported in US20240269158A1, “THERAPEUTIC AGENTS AND METHODS FOR TREATMENT OF BARTONELLOSIS” (THE ADMINISTRATORS OF THE TULANE EDUCATIONAL FUND, priority 2021, published 2024).
≈ marks a conversion by molar mass, not a printed value. Like-named read-outs stand apart in the source and are kept apart here.

Assays:
[1] = tested on: B. vinsonii; test: MIC assay in liquid culture media (OD600); type: cell-based, B. vinsonii subsp. berkhoffii; details: Grace's insect media
Method: (§1) The B. henselae strains used were San Antonio 2, 267HO04, a human clinical isolate and B. vinsonii subsp. berkhoffii. Both the bacteria were initially grown on tryptic soy agar (TSA) supplemented with 5% defibrinated sheep blood plates that were either pre-made (Remel, R01198) or homemade, in a humidified atmosphere at 37° C. with 5% CO2 for 7 days. For the preparation of liquid cultures, an individual well-grown colony from the plate was resuspended in 15 ml Falcon tubes containing 3 mL of either Schneider's insect media supplemented with 10% FBS, or Grace's insect media (Gibco, 11605-094) supplemented with 10% FBS, or BAPGM serum-free liquid media. The cultures grew for 7 more days in the atmosphere as above without shaking. The number of viable bacteria was determined by either plating serial dilutions of the culture on plates for CFU or by live/dead staining. Before every experiment, bacteria were mixed well and passed through 22-gauge needle to break large clumps of bacteria.
Optical density (OD) of 7-day old bacterial liquid culture that was grown from an individual colony was measured using a spectrophotometer (Bio-Rad, SmartSpec 300, 170-2501). Bacterial culture was then diluted down to an OD of 0.1 ? 3×10^8 cfu/ml with the respective media.
To determine the MIC of the antibiotics and for the visualization of the bacterial growth, a clear 96-well plate was used. Into each well of a 96-well plate, 50 μl of the 0.1 OD bacterial culture and 50 μl of the liquid media containing antibiotics were added to the wells bringing the total volume to 100 μl of 0.05 OD bacteria (CFU ? 1.5×10^7) in each well. Wells containing only bacteria with solvent used in the dilution of the antibiotics served as a positive control to verify the growth of bacteria. As a negative control, wells containing only media and solvents were used. Each concentration of diluted antibiotic was run in 4 replicates to minimize the error rate. The 96-well plate was covered with the lid and incubated at 37° C. with 5% CO2. OD of the culture was read after 48 hrs and 96 hrs using a hybrid multi-mode microplate reader (Biotek, Synergy H4 hybrid reader) at OD600. The assay was repeated three times.
(§2) Therapeutic agent stocks were prepared in the following solvents: 10 mg/ml of ceftriaxone (USP), doxycycline (Fisher scientific, D9891-1G), gentamicin (Fisher scientific, 1405-41-0), ampicillin (Fisher scientific, 69-52-3) and azlocillin (Flightpath) in sterile cell culture grade water, whereas 5 mg/ml of azithromycin (Sigma, PZ0007-5MG) was dissolved in sterile cell culture grade DMSO. Antibiotics were then aliquoted and stored at either −80° C. or −20° C. until further use. On the day of assay, these stock concentrations were diluted to 1 mg/ml and 100 μg/ml in the respected bacterial culture media for MIC and cell-free, liquid culture MBC assays. For the DH82 cell-based MBC assay, antibiotics were diluted in EMEM media supplemented with 15% heat inactivated FBS.
The determination of susceptibility to therapeutic agents was performed in liquid culture media. Six different therapeutic agents were tested with multiple different concentrations against B. henselae and B. vinsonii. Therapeutic agent concentrations tested were as follows: Ceftriaxone 0.001, 0.01, 0.1, 0.3, 0.5, 1, 2, and 5 μg/ml; doxycycline 0.001, 0.01, 0.1, 0.3, 0.5, 1, 2, 5, and 10 μg/ml, gentamicin: 0.01, 0.1, 0.3, 0.5, 1, 2, 4, 8, and 16 μg/ml, and azithromycin: 0.001, 0.005, 0.02, 0.1, 0.3, 0.5, 1, 2, 5, and 10 μg/ml, were tested based on previous antibiotic susceptibility studies. The following azlocillin dilutions were included: 0.001, 0.005, 0.01, 0.02, 0.5, 1, 2, and 5 μg/ml. The ampicillin dilutions included were as follows: 0.001, 0.005, 0.01, 0.02, 0.5, 1, 2, 4, and 8 μg/ml. Both the species of Bartonella were susceptible to all the antibiotics that were used in BAPGM and Grace's culture liquid mediums. […]

[2] = tested on: B. henselae; test: Cell-free, liquid culture MBC assay; type: cell-based, Bartonella henselae; details: 96 hrs, plated on blood agar
Method: as §1
Briefly, the bacterial culture that was treated with therapeutic agents for 96 hrs was collected into a 1.5 ml microcentrifuge tubes and centrifuged at 7000 rpm for 10 min. The supernatant was removed, and the bacterial pellet was washed with 1×PBS twice. The bacterial pellet was then resuspended in 100 μL of 1×PBS, plated onto blood agar plates and incubated at 37° C. with 5% CO2 for about 14 days. This assay was repeated three times with all the 6 different antibiotics (azlocillin, azithromycin, ceftriaxone, doxycycline, gentamicin and ampicillin) and at different concentrations.
as §2
For this assay, both B. henselae and B. vinsonii were grown in Grace's insect media and were tested against all of the 6 antibiotics (ceftriaxone, doxycycline, gentamicin, azithromycin, azlocillin, ampicillin).

[3] = tested on: B. henselae and B. vinsonii; test: Live/dead BacLight staining; type: cell-based, Bartonella; details: 10 μg/ml
Method: To determine the viability of the bacteria grown in liquid culture media, LIVE/DEAD BacLight™ Bacterial viability kit for microscopy (ThermoFisher, L7012) was used according to the manufacturer's protocol. Briefly, 7-day old liquid culture media was used for the determination of the viability. Initially, bacteria were diluted down to an optical density (OD) of 0.1 using the respective liquid culture media. 1 ml of 0.1 OD bacterial culture was then transferred into a 2 ml microcentrifuge tube and centrifuged at 7000 rpm for 10 min. After removing the supernatant, the pellet was resuspended in 1 ml of 0.85% NaCl and bacteria was pelleted again. After three washes, bacteria were resuspended in 1 ml of 0.85% NaCl and incubated with 1 μl of green-fluorescent nucleic acid dye (SYTO9) and 1 μl of red-fluorescent nucleic acid dye (PI) for 15 minutes. All the incubations were performed at room temperature and in the dark. After 15 minutes of incubation with both the dyes, bacteria were visualized under fluorescence microscopy and images were acquired using Nikon NIS elements software. Later, mean fluorescence intensity of both the SYTO9 and PI was measured using the Nikon elements software. Mean fluorescence values were acquired from a total of 10 images per experimental condition. To obtain dead cell counts, bacteria were treated with 70% isopropanol and incubated for 1 hr, while the sample was mixed for every 15 min and stained as above. Additionally, the entire staining protocol was repeated by staining the bacteria with PI first and then with SYTO9 both on dead and live bacteria and the fluorescence values were recorded accordingly. However, in the staining of therapeutic agent treated bacteria, both the dyes were pre-mixed into 1 ml of sterile-filtered distilled water, as previously described and 10 μl of the mixture was added into each well, incubated and visualized as described above.
Bacteria were stained with the live/dead BacLight™ kit to determine the viability of the bacteria before every experiment. […] Viability was also measured after 96 hours on control, untreated bacteria. […]

[4] = Bartonella henselae, read-out: MBC

Compound	MIC ([1]; read-out: MIC) [µg/mL]	MBC [2, 4] [µg/mL]	live/dead staining signal of treated bacteria [3]	MIC [1] [µg/mL]	MBC [2] [µg/mL]
CC[C@H]1OC(=O)[C@H](C)[C@@H](O[C@H]2C[C@@](C)(OC)[C@@H](O)[C@H](C)O2)[C@H](C)[C@@H](O[C@@H]2O[C@H](C)C[C@H](N(C)C)[C@H]2O)[C@](C)(O)C[C@@H](C)CN(C)[C@H](C)[C@@H](O)[C@]1(C)O [Azithromycin, azithromycin]	0.1 to 0.3	5 to 10 (≈ 6.68 to 13.4 µM)	showed only SYTO9 signal		
CC1(C)S[C@@H]2[C@H](NC(=O)[C@H](NC(=O)N3CCNC3=O)c3ccccc3)C(=O)N2[C@H]1C(=O)O [Azlocillin, azlocillin]	0.001 to 0.005	1 to 2 (≈ 2.17 to 4.33 µM)	showed only SYTO9 signal		
CO/N=C(\C(=O)N[C@@H]1C(=O)N2C(C(=O)O)=C(CSc3nc(=O)c(=O)[nH]n3C)CS[C@H]12)c1csc(N)n1 [Ceftriaxone, ceftriaxone]	0 to 0.01	2 to 4 (≈ 3.61 to 7.21 µM)	showed only SYTO9 signal		
gentamicin				2.0 to 4.0	2.0 to 4.0
